Test results as given in patent publication US5373040A, “Amorphous solid modification of 2,2',2"-nitrilo[triethyl-tris-(3,3',5,5'-tetra-tert-butyl-1,1'-biphenyl- 2,2'-diyl)phosphite]” (Ciba-Geigy Corporation, priority 1993, dated 1994).

How the values were obtained:
[1] = Process stabilization of polypropylene at 525° F.: melt flow rate (ASTM D1238); conditions: 0.075% by weight of each additive, 0.075% calcium stearate, 525° F.
Procedure: (§1) The test additives are incorporated into the polypropylene by dry blending or, when the additive is a liquid, using a minimum amount of methylene chloride solvent. The solvent is then removed by evaporation under reduced pressure.
After each of the first, third and fifth extrusions, the melt flow rate (in grams/10 minutes) is determined by ASTM method D1238 on the pellets obtained from the extruder.

[2] = Process stabilization of polypropylene: yellowness index of plaques (ASTM D1925); conditions: 0.075% by weight of each additive, 0.075% calcium stearate
From the text: as §1

[3] = Solubility in LLDPE film by diffusion-in, X-ray fluorescence; assay type: physicochemical
Procedure: Experiments are carried out to determine the solubility of the instant compound into linear low density polyethylene (LLDPE) films at 20° C., 40° C. and 60° C. by diffusion-in of a relatively homogeneous particle size (<70 microns) of the test sample suspended in silicon oil.
Each sample is carefully ground with a mortar and pestle and the particle size below 70 microns is separated by sieving with a 200 mesh screen. The powder is then suspended in silicon oil (polydimethylsiloxane, L-45, Union Carbide Chemicals) at a concentration of approximately 38% (wt/wt). A few drops of this suspension is placed on a 10 mil (0.254 mm) thick, 2"×2" (5.08 cm×5.08 cm) compression molded film and a second film of the same dimension is placed on top. The films are gently pressed together so that the suspension forms a thin liquid layer between the polymer films. Excess suspension is removed and the procedure is repeated till a stack of eight films (six films for evaluation) are prepared. The stack is then placed between two 2.5"×2.5" (6.35 cm×6.35 cm) ceramic tiles and wrapped in aluminum foil and held together with a G-clamp. Each stack is aged at 20° C., 40° C. and 60° C. under a nitrogen atmosphere. At specified intervals, a single film is removed from the stack and the excess suspension is washed from the film with hexane. The film is then analyzed by X-ray fluorescence for total phosphorus content. LLDPE containing 0, 1000 ppm and 2000 ppm of the test compound are used as standard controls for this X-ray fluorescence method.

[4] = Solubility in lubricating oil (Mobil BB oil); assay type: physicochemical; conditions: 1% by weight in Mobil BB oil (Exp. 4f), at 60° C. per footnote
[5] = Apparent bulk density (ASTM D-1895); assay type: physicochemical
Procedure: The apparent bulk density of the solids is measured according to the method of ASTM D-1895 (79). A higher apparent bulk density allows for a greater mass per unit volume which affords advantages in packaging of the solid product, such as lower costs for the packaging material, less storage space is required, etc.

[6] = Solubility in lubricating oil (Mobil BB oil); assay type: physicochemical
Procedure: The following experiments are performed to determine the solubility of amorphous compound A and crystalline compound B in Mobil BB oil. Both compounds have the same uniform particle sizes (40-70 micron).
Compound A=amorphous form of 2,2',2"-nitrilo-[triethyl-tris-(3,3',5,5'-tetra-tert-butyl-1,1'-biphenyl-2,2'-diyl) phosphite], prepared in accordance with instant Example 1.
Compound B=crystalline form of 2,2',2"-nitrilo[triethyl-tris-(3,3',5,5'-tetra-tert-butyl-1,1'-biphenyl-2,2'-diyl) phosphite], prepared in accordance with Example 4 of U.S. Pat. No. 4,318,845.
Into a vial of 980 mg. of Mobil BB oil is added 20 mg. of compound A at ambient temperature. For the first 30 minutes, the vial is shaken every 10 minutes. After the initial 30 minutes, the vial is left standing.
Into a vial of 980 mg. of Mobil BB oil is added 20 mg. of compound B at ambient temperature. For the first 30 minutes, the vial is shaken every 10 minutes. After the initial 30 minutes, the vial is left standing.
Into a vial of 980 mg. of Mobil BB oil is added 20 mg. of compound A at ambient temperature. The vial is then placed into a 60° C. oil bath.
Into a vial of 980 mg. of Mobil BB oil is added 20 mg. of compound B at ambient temperature. The vial is then placed into a 60° C. oil bath.
Into a vial of 990 mg. of Mobil BB oil is added 10 mg. of compound A at ambient temperature. […] is shaken every 10 minutes. After the initial 30 minutes, the vial is left standing.
Into a vial of 990 mg. of Mobil BB oil is added 10 mg. of compound B at ambient temperature. […] is shaken every 10 minutes. After the initial 30 minutes, the vial is left standing.

In the case of `CC(C)(C)c1cc(CCC(=O)OCC(COC(=O)CCc2cc(C(C)(C)C)c(O)c(C(C)(C)C)c2)(COC(=O)CCc2cc(C(C)(C)C)c(O)c(C(C)(C)C)c2)COC(=O)CCc2cc(C(C)(C)C)c(O)c(C(C)(C)C)c2)cc(C(C)(C)C)c1O` [Base, neopentanetetrayl tetrakis(3,5di-tert-butyl-4-hydroxyhydrocinnamate)], the “Melt Flow after Extrusion 5” value ([1]; after fifth extrusion) is reported as 17.5 grams/10 minutes, the “Melt Flow after Extrusion 1” value ([1]; after first extrusion) is reported as 8.1 grams/10 minutes and the “Melt Flow after Extrusion 3” value ([1]; after third extrusion) is reported as 12.9 grams/10 minutes. The “Yellowness Index (YI) Values after Extrusion 5” value ([2]; after fifth extrusion) was 11.0, the “Yellowness Index (YI) Values after Extrusion 1” value ([2]; after first extrusion) was 7.6 and the “Yellowness Index (YI) Values after Extrusion 3” value ([2]; after third extrusion) was 9.0.

For `CC(C)(C)c1cc(C(C)(C)C)c2op(OCCN(CCOp3oc4c(C(C)(C)C)cc(C(C)(C)C)cc4c4cc(C(C)(C)C)cc(C(C)(C)C)c4o3)CCOp3oc4c(C(C)(C)C)cc(C(C)(C)C)cc4c4cc(C(C)(C)C)cc(C(C)(C)C)c4o3)oc3c(C(C)(C)C)cc(C(C)(C)C)cc3c2c1` [Example 4 of U.S. 4,318,845, 2,2',2"-nitrilo[triethyl-tris-(3,3',5,5'-tetra-tert-butyl-1,1'-biphenyl-2,2'-diyl)phosphite], reference compound], the “Solubility of Compound in LLDPE at 20° C.” value (“Solubility … at 20° C.” for short) ([3]; interval 15 (time unit not given)) was 1500 ppm, the “Solubility … at 20° C.” value ([3]; interval 28 (time unit not given)) was 1000 ppm and the “Solubility … at 20° C.” value ([3]; interval 35 (time unit not given)) was 1200 ppm. The “Solubility … at 20° C.” value ([3]; interval 44 (time unit not given)) was 1200 ppm, the “Solubility of Compound in LLDPE at 40° C.” value (“Solubility … at 40° C.” for short) ([3]; interval 10 (time unit not given)) was 500 ppm and the “Solubility … at 40° C.” value ([3]; interval 17 (time unit not given)) was 1750 ppm. The “Solubility … at 40° C.” value ([3]; interval 25 (time unit not given)) was 750 ppm, the “Solubility … at 40° C.” value ([3]; interval 34 (time unit not given)) was 400 ppm and the “Solubility … at 40° C.” value ([3]; interval 40 (time unit not given)) was 600 ppm. The “Solubility … at 40° C.” value ([3]; interval 47 (time unit not given)) was 1400 ppm, the “Solubility … at 20° C.” value ([3]; third section, interval 6 (time unit not given)) was 1000 ppm and the “Solubility … at 20° C.” value ([3]; third section, interval 14 (time unit not given)) was 800 ppm. The “Solubility … at 20° C.” value ([3]; third section, interval 22 (time unit not given)) was 1000 ppm, the “Solubility … at 20° C.” value ([3]; third section, interval 28 (time unit not given)) was 900 ppm and the “Solubility … at 20° C.” value ([3]; third section, interval 37 (time unit not given)) was 900 ppm. The “Time to clear solution” value [4] was 5 h, the “Bulk Density” value [5] was 0.44 g/mL and the Observation ([6]; 1% by weight in Mobil BB oil, RT, 1.5 hrs., listed as B) was “Cloudy”. For the same compound, the Observation ([6]; 1% by weight in Mobil BB oil, RT, 1.5 hrs., listed as compound B) was “cloudy suspension”, the “Time to clear solution” value ([6]; 1% by weight in Mobil BB oil, RT, listed as compound B) was 16 h and the Observation ([6]; 2% by weight in Mobil BB oil, 60° C. oil bath, 10 min., listed as B) was “Cloudy”. For the same compound, the Observation ([6]; 2% by weight in Mobil BB oil, 60° C. oil bath, 10 min., listed as compound B) was “cloudy suspension”, the “Time to clear solution” value ([6]; 2% by weight in Mobil BB oil, 60° C. oil bath, listed as B) was 5 h and the “Time to clear solution” value ([6]; 2% by weight in Mobil BB oil, 60° C. oil bath, listed as compound B) was 16 h. For the same compound, the Observation ([6]; 2% by weight in Mobil BB oil, RT, 2.5 hrs., listed as B) was “Cloudy”, the Observation ([6]; 2% by weight in Mobil BB oil, RT, 2.5 hrs., listed as compound B) was “cloudy suspension” and the “Time to clear solution” value ([6]; 2% by weight in Mobil BB oil, RT, listed as B) was 16 h. For the same compound, the “Time to clear solution” value ([6]; 2% by weight in Mobil BB oil, RT, listed as compound B) was 16 h.
